# Tested on: primary neonate myocytes (cardiomyocytes)
# Assay: Isolated heart cell (myocyte) preparation model of myocardial cell ischemia (Example 4)
# Format: cell-based, rat
# Details: 37-111 micromolar
# Description: Two-day old rat pups are removed from their mothers and placed in a sterile container. Pups are dipped quickly into 70% alcohol, then decapitated and the body is placed in an empty sterile tissue culture dish. An incision is made starting at the neck and progressing towards the belly, cutting through the sternum. The heart is removed and placed in a tissue culture dishes containing 1×HDS. The atria are trimmed, and the remaining ventricles are placed into a separate tissue culture dish containing 1×HDS, where they are sectioned into 3-4 pieces each. Ventricles are then transferred to a sterile 250 ml glass flask and the 1×HDS is removed. Twenty milliliters of pre-warmed collagenase solution are added to the ventricles, followed by incubation at 37° C. with shaking. After 30 minutes, the collagenase solution is removed and replaced with 20 ml fresh pre-warmed collagenase. Incubation is continued for an additional 30 minutes. At the end of the incubation, any tissue chunks are allowed to settle prior to removing the collagenase (containing the isolated cardiomyocytes) from the disrupted tissue pieces. The isolated myocytes are added to a 50 ml Falcon tube containing 2 ml Fetal Bovine Serum (FBS). […]
# A small aliquot of the cell suspension is counted in a hemocytometer. […]
substance,measurement,value
bromo-quercetin,preventing or reducing myocardial damage,effective
